Results: PMC5708365, “Histone lysine methyltransferase structure activity relationships that allow for segregation of G9a inhibition and anti-Plasmodium activity” (MedChemComm, 2017)
Read-outs that look alike come from different tables or passages of the source.

Key:
[1] = tested on: H3K4me3 levels in P. falciparum 3D7 parasites; assay: Parasite histone methylation analysis (Western blot), H3K4me3; format: cell-based; conditions: 12 h treatment, relative to DMSO control
Protocol: (§1) Parasites were treated with drugs for 12 h. After treatment, infected red blood cells were collected and lysed with PBS containing 0.15% saponin. Free parasites were lysed by bath sonication in 1% SDS-PBS and analysed by Western Blot. Blots were probed with primary antibodies specific for H3K4me3 (Abcam ab1012 1 : 1000), H3 core (Abcam ab1791, 1 : 3000) and H3K9me3 (Abcam ab8898, 1 : 1000) diluted in TBS-T (50 mM Tris pH 7.5, 150 mM NaCl, 0.05% Tween-20, 5% BSA), followed by anti-mouse HRP (GE NA931V) or anti-rabbit HRP (GE NA934V) secondary antibodies.

[2] = tested on: H3K9me3 levels in P. falciparum 3D7 parasites; assay: Parasite histone methylation analysis (Western blot), H3K9me3; format: cell-based; conditions: 12 h treatment, relative to DMSO control
Protocol: as §1

PfSET7 = assay: Initial activity assays using PfSET7; format: biochemical, P. falciparum; conditions: data not shown
[3] = tested on: synchronised P. falciparum parasites; assay: In vitro stage-dependent antimalarial activity; format: cell-based; conditions: 10× IC50, three distinct 12 hour periods of the intra-erythrocytic life cycle; re-invasion and out-growth
Protocol: Stage-specific compound treatment effects were elucidated using highly synchronized parasites in 48-well plates with a starting parasitemia of 0.75% and a hematocrit of 2%. […] After treatment, parasites were washed with warm RPMI 1640 medium and placed back into culture without test compound for analysis of re-invasion after completion of the cell cycle in which treatment occurred. Washed parasites after treatment were also diluted 1 : 16 and allowed to grow without compound for an additional two cell cycles (4 days). Parasitemia after re-invasion or after 4 day growth was quantified on infected cells fixed in 0.025% glutaraldehyde and stained with 2× SYBR Green I (Lonza) in PBS.

[4] = tested on: P. falciparum 3D7 strain parasites; conditions: parasite-killing activity reported earlier, cited from earlier work; for IC50: read-out: Pf3D7 IC50
G9a [5] = target: T1, G9a (Homo sapiens, UniProt Q96KQ7); conditions: for IC50: read-out: G9a IC50
T1 sequence (Q96KQ7 1-1210): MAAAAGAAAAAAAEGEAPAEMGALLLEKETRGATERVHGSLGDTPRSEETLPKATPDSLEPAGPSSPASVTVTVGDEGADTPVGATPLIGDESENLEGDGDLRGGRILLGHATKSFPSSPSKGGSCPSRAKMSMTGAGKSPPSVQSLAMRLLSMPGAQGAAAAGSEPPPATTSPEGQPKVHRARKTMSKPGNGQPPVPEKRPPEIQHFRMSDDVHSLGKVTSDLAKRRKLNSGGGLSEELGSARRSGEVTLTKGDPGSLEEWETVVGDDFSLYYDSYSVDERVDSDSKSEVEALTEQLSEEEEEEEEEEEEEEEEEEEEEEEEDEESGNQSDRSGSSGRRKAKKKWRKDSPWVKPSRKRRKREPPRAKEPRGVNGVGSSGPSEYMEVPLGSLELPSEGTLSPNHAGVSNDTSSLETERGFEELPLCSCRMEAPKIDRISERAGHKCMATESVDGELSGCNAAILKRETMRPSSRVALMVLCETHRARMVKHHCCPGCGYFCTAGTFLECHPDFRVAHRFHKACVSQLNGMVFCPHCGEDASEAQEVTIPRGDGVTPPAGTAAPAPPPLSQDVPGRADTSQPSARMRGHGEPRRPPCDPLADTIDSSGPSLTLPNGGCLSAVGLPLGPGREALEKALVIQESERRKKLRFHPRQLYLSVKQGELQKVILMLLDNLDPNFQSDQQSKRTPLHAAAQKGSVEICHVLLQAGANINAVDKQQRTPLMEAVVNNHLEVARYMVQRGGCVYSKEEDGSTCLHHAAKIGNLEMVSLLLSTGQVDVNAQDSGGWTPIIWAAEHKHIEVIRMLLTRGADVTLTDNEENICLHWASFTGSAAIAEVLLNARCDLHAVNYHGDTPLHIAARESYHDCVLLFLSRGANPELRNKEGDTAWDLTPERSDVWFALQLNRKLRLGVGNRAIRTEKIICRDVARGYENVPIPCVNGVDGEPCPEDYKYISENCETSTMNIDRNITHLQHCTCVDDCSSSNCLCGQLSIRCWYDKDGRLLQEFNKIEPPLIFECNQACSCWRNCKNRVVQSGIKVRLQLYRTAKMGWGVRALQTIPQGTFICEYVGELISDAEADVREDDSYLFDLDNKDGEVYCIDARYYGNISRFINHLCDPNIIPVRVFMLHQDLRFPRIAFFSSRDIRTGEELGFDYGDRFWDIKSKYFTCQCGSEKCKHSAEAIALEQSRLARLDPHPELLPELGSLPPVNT

[6] = tested on: P. falciparum 3D7 strain parasites; assay: microbe, parasite or virus in culture; conditions: Plasmodium falciparum, 3D7, 72 h, read-out: Pf3D7 IC50
[7] = tested on: G9a activity in cells (H3K9me2 levels); conditions: reduction of H3K9me2 levels, ICW; cited from earlier work
[8] = tested on: P. falciparum 3D7 strain parasites; conditions: P. falciparum 3D7, three-day SYBR Green I assay
HepG2 cells [9] = conditions: read-out: HepG2 IC50; Tables ST1 and ST2
G9a [10] = target: T1, G9a; conditions: read-out: G9a IC50; CLOT assay; cited from earlier work
HepG2 cells [11] = assay: cells; conditions: Homo sapiens, HepG2, read-out: anti-HepG2 IC50
[12] = SPA, 5 nM G9a, H3 1-25 peptide 0.8 μM, 3H-SAM 8 μM

## COc1cc2nc(N3CCCN(C)CC3)nc(NC3CCN(Cc4ccccc4)CC3)c2cc1OC [compound 1, reference compound]
[1]
  H3K4me3 levels: decrease
[2]
  H3K9me3 levels: decrease
PfSET7
  PfSET7 as target: PfSET7 not to be the target
[3]
  stage-dependent killing phenotype: erythrocytic stage-independent killing phenotype

## COc1cc2c(NC3CCN(C)CC3)nc(N3CCCN(C)CC3)nc2cc1OCCCN(C)C [compound 66, reference compound]
[4]; P. falciparum 3D7
  IC50: > 2000 nM

## COc1cc2nc(N3CCC(OC)CC3)cc(NC3CCN(Cc4ccccc4)CC3)c2cc1OC [compound 90, N-(1-Benzylpiperidin-4-yl)-6,7-dimethoxy-2-(4-methoxypiperidin-1-yl)quinolin-4-amine]
[1]
  H3K4me3 levels: decrease
[2]
  H3K9me3 levels: decrease
[3]
  stage-dependent killing phenotype: erythrocytic stage-independent killing phenotype
G9a [5]; [12]
  IC50: 119 nM

## CCN(CC)CCCC(C)Nc1ccnc2cc(Cl)ccc12 (stereo not drawn) [Chloroquine]
[6]
  IC50: 8 nM

## COc1cc2c(NC3CCN(C)CC3)nc(N3CCCN(C)CC3)nc2cc1OCCCN1CCCCC1 [compound 64]
[4]; P. falciparum 3D7
  IC50: > 2000 nM
[7]
  G9a activity in cells: moderate G9a activity in cells

## COc1cc2c(NC3CCN(C)CC3)nc(NCCCN(C)C)nc2cc1OCc1ccccc1 [compound 63]
[8]
  Pf3D7 IC50: lost activity against Plasmodium
G9a [5]; [12]
  IC50: > 1000 nM

## COc1cc2nc(N3CCOCC3)nc(NC3CCN(Cc4ccccc4)C3)c2cc1OC (stereo not drawn) [S15]
[4]; Tables ST1-ST4, ref 1 (supplement)
  IC50: 152 nM
HepG2 cells [9]
  IC50: 15300 nM
G9a [5]; ratio of G9a IC50 to Pf3D7 IC50
  G9a/Pf3D7: > 6.6
G9a [5]; [12]
  IC50: > 1000 nM

## COc1cc2c(NC3CCN(C)CC3)nc(N3CCCN(C)CC3)nc2cc1OCCN(C)C [compound 67]
[4]; P. falciparum 3D7
  IC50: > 2000 nM

## COCCCCOc1cc2nc(N3CCCN(C)CC3)nc(NC3CCN(C)CC3)c2cc1OC [compound 71]
G9a [10]
  IC50: > 10000 nM

## COc1cc2c(NC3CCN(C)CC3)nc(N3CCCN(C)CC3)nc2cc1OCCCN1CCCC1 [compound 65]
[4]; P. falciparum 3D7
  IC50: > 2000 nM
[7]
  G9a activity in cells: moderate G9a activity in cells

## COc1cc2nc(NCCCN(C)C)nc(NC3CCN(Cc4ccccc4)CC3)c2cc1OC [compound 17]
[8]
  Pf3D7 IC50: poor potency against Plasmodium
G9a [5]; [12]
  G9a IC50: good G9a inhibition
  IC50: 123 nM

## COc1cc2nc(N3CCN(C)CC3)cc(NC3CCN(Cc4ccccc4)CC3)c2cc1OC [compound 89, N-(1-Benzylpiperidin-4-yl)-6,7-dimethoxy-2-(4-methylpiperazin-1-yl)quinolin-4-amine]
[1]
  H3K4me3 levels: decrease
[2]
  H3K9me3 levels: decrease
[3]
  stage-dependent killing phenotype: erythrocytic stage-independent killing phenotype
G9a [5]; [12]
  IC50: 21 nM

## COc1cc2nc(N3CCCCC3)nc(NC3CCN(C)CC3)c2cc1OC [compound 40]
HepG2 cells [11]
  IC50: > 10000 nM
G9a [5]; [12]
  IC50: 591 nM

## COc1cc2nc(N3CCCN(C)CC3)nc(NC3CCN(C)CC3)c2cc1OC [compound 38]
[4]; P. falciparum 3D7
  Pf3D7 IC50: low Pf3D7 activity
  IC50: > 300 nM
